Values after ≈ are worked out from the molar mass of the structure shown. “Also recorded” adds a separate entry of the source.
Legend:
E. floccosum = test: Checkerboard combination testing of compound 8 with antifungals, FIC (Example 1); assay type: cell-based, Epidermophyton floccosum; settings: in combination with Cpd 8, one value per clinical isolate (Strain # 1-6)
Description: (§1) This example describes the in vitro activity of combinations of compounds according to the present invention and antifungal agents against a collection of dermatophytic fungal pathogens. Antifungal susceptibility testing was adapted from the CLSI M38-A broth microdilution method for dermatophytes (NCCLS-M38-A2 2008). Combination testing was performed by checkerboard method (with compound 8 in combination with fluconazole, itraconazole or terbinafine). A total of 30 isolates of 5 different fungal species were tested in the combination test: 6 isolates each of Trichophyton tonsurans, Trichophyton rubrum, Epidermophyton floccosum, Trichophyton mentagrophytes and Microsporum canis. Clinical isolates were obtained by the Laboratory of Dr. M. Ghannoum at Case Western University.
Synergy was assessed using the fractional inhibitory concentration (FIC), an interaction coefficient, with the following definitions:
The fold reduction of the itraconazole minimum inhibitory concentration (MIC) was also evaluated.

T. rubrum = test: MIC testing, modified CLSI M38-A2 for dermatophytes (Example 2); assay type: cell-based, Trichophyton rubrum; settings: Trichophyton rubrum
T. tonsurans = test: as above; assay type: cell-based; settings: n = 5 strains
Description: (§2) MIC testing was performed according to the modification of the CLSI M38-A2 standard for dermatophytes developed at the Center (CLSI. Reference Method for Broth Dilution Antifungal Susceptibility Testing of Filamentous Fungi; Approved Standard-Second Edition. CLSI document M38-A2 [ISBN 1-56238-668-9]. CLSI, 940 West Valley Road, Suite 1400, Wayne, Pa. 19087-1898 USA, 2008; Ghannoum M A, et al. Intra- and Interlaboratory Study of a Method for Testing the Antifungal Susceptibilities of Dermatophytes. 2004 J Clin Microbiol 42:(7): 2977-2979). Compound 8 and fluconazole were tested in combination using a checkerboard microdilution method. The interaction between Compound 8 and fluconazole was determined by FIC Index, or Fractional Inhibitory Concentration Index, which assigns a numerical value to the interaction of the two antifungals.

T. mentagrophytes = test: as above; assay type: cell-based; settings: n = 5 strains
Description: as §2

[1] = test system: panel of clinical isolates of 5 common dermatophytic fungi; test: Checkerboard combination testing, whole panel (Example 1); assay type: cell-based; settings: terbinafine alone; reason why synergy could not be determined
Description: as §1
Synergy was assessed using the fractional inhibitory concentration (FIC), an interaction coefficient, with the following definitions: […]

Structure (SMILES)	MIC (E. floccosum; Epidermophyton floccosum, read-out: Itraconazole MIC with Cpd 8) [ng/mL]	Itraconazole MIC with Cpd 8 (E. floccosum) [ng/mL]	MIC50 (T. rubrum; lowest concentration to inhibit 50% of the strains tested, n = 20, read-out: MIC50) [ng/mL]	MIC90 (T. rubrum; n = 20 strains) [ng/mL]	MIC50 (T. tonsurans; Trichophyton tonsurans) [ng/mL]	MIC90 (T. tonsurans; Trichophyton tonsurans) [ng/mL]	MIC Range (T. tonsurans) [ng/mL]	MIC50 (T. mentagrophytes; Trichophyton mentagrophytes) [ng/mL]	MIC90 (T. mentagrophytes; Trichophyton mentagrophytes) [ng/mL]	MIC Range (T. mentagrophytes) [ng/mL]	Potency (MIC) of terbinafine, in words [1]
CCC(C)n1ncn(-c2ccc(N3CCN(c4ccc(OCC5COC(Cn6cncn6)(c6ccc(Cl)cc6Cl)O5)cc4)CC3)cc2)c1=O (centres unmarked) [Itraconazole, itraconazole, reference compound]	15	8									
CN(C/C=C/C#CC(C)(C)C)Cc1cccc2ccccc12 [Terbinafine, terbinafine]			16 (≈ 0.0549 µM)	8000 (≈ 27.5 µM)	2	2	1 to 16	8	16	4 to 16	extremely low MIC; also recorded: † = synergy could not be determined because of the high potency (extremely low MIC) of terbinafine
